Assay results published in patent US20260327204A1, “DEGRADERS OF CYCLIN-DEPENDENT KINASE 12/13, COMPOSITIONS, AND USES THEREOF” (ZHEJIANG UNIVERSITY, priority 2023, published 2026).

Key:
Assay type in all cases: cell-based
Parameters in all cases: degradation of CDK12/13 protein in leukemia cells KASUMI-1, MV4-11, and Jurkat; endogenous in cells
CDK13 [1] = target: T1, CDK13 (Homo sapiens, UniProt Q14004); experiment: Western blot degradation of CDK13 (Example 3); conditions: DC50 classes; cell line not given; read-out: CDK13 degradation Activity
CDK12 [2] = target: T2, CDK12 (Homo sapiens, UniProt Q9NYV4); experiment: Western blot degradation of CDK12 (Example 3); conditions: DC50 classes; cell line not given; read-out: CDK12 degradation Activity
CDK12 [3] = target: T2, CDK12; experiment: Western blot degradation of CDK12 (Example 2); conditions: DC50 classes; cell line not given; read-out: CDK12 degradation Activity
How it was run: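 Leukemia lines KASUMI-1, MV4-11, Jurkat, plus MDA-MB-231 for a concentration series, treated at 0.01–3 μM for 3–48 h at 37 °C against DMSO control. Lysates in 4% SDS; CDK12/13 band intensity normalized to β-Actin or GAPDH to give degradation rate.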

CDK13 [4] = target: T1, CDK13; experiment: Western blot degradation of CDK13 (Example 2); conditions: DC50 classes; cell line not given; read-out: CDK13 degradation Activity

T2 sequence (Q9NYV4 whole entry): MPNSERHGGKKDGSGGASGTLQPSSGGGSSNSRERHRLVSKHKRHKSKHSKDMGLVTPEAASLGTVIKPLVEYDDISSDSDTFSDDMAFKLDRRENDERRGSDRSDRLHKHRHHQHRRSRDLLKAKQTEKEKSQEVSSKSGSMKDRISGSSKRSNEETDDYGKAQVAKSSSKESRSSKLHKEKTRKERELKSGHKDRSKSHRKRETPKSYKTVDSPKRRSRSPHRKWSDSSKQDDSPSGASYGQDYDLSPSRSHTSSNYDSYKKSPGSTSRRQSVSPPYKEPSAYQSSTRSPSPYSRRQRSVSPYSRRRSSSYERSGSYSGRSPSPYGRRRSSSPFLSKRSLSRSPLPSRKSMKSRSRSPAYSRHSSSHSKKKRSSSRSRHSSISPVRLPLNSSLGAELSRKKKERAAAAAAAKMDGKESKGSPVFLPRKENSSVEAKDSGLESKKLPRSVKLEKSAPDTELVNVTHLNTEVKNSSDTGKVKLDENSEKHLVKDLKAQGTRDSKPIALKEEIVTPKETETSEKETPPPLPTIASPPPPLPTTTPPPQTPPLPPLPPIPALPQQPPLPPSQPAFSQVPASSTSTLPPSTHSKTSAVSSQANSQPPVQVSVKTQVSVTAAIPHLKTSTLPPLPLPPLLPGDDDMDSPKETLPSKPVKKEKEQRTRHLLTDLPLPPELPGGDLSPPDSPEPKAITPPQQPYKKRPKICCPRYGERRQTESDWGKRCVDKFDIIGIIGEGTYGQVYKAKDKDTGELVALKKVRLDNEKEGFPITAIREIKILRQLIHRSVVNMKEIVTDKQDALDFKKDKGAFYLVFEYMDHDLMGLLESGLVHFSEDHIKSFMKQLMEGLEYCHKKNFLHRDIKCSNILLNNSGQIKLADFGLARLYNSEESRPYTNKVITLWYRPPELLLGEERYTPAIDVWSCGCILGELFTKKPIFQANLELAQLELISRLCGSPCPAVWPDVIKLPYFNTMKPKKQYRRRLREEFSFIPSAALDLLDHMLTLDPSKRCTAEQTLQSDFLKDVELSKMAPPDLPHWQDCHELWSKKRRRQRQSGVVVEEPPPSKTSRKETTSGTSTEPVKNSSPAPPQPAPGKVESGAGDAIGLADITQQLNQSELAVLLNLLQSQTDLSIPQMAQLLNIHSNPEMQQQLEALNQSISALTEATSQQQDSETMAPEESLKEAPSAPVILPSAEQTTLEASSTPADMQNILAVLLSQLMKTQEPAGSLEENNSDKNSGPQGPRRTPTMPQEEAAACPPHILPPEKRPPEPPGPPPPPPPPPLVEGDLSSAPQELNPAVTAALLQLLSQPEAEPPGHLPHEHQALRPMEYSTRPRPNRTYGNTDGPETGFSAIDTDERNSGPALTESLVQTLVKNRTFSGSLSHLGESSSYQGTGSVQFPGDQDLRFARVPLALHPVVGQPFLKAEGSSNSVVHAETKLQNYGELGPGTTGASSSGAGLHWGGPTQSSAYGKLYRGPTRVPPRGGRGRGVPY
T2 sequence (O75909 whole entry partner): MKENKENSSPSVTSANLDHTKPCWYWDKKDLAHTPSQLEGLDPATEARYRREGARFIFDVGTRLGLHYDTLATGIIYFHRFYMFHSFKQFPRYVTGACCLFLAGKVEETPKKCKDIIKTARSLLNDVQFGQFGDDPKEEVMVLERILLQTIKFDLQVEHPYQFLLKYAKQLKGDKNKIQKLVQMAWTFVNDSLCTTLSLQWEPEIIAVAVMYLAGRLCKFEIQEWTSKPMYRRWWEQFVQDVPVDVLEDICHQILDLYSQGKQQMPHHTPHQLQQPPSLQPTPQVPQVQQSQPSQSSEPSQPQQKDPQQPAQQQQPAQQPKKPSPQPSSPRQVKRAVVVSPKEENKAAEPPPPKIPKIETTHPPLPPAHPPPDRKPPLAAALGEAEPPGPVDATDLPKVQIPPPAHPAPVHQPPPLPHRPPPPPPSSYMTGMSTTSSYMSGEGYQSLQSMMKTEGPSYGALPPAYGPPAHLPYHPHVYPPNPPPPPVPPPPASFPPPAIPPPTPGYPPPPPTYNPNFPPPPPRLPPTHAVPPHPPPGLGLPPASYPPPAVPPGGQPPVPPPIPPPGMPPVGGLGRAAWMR
T1 sequence (Q14004 whole entry): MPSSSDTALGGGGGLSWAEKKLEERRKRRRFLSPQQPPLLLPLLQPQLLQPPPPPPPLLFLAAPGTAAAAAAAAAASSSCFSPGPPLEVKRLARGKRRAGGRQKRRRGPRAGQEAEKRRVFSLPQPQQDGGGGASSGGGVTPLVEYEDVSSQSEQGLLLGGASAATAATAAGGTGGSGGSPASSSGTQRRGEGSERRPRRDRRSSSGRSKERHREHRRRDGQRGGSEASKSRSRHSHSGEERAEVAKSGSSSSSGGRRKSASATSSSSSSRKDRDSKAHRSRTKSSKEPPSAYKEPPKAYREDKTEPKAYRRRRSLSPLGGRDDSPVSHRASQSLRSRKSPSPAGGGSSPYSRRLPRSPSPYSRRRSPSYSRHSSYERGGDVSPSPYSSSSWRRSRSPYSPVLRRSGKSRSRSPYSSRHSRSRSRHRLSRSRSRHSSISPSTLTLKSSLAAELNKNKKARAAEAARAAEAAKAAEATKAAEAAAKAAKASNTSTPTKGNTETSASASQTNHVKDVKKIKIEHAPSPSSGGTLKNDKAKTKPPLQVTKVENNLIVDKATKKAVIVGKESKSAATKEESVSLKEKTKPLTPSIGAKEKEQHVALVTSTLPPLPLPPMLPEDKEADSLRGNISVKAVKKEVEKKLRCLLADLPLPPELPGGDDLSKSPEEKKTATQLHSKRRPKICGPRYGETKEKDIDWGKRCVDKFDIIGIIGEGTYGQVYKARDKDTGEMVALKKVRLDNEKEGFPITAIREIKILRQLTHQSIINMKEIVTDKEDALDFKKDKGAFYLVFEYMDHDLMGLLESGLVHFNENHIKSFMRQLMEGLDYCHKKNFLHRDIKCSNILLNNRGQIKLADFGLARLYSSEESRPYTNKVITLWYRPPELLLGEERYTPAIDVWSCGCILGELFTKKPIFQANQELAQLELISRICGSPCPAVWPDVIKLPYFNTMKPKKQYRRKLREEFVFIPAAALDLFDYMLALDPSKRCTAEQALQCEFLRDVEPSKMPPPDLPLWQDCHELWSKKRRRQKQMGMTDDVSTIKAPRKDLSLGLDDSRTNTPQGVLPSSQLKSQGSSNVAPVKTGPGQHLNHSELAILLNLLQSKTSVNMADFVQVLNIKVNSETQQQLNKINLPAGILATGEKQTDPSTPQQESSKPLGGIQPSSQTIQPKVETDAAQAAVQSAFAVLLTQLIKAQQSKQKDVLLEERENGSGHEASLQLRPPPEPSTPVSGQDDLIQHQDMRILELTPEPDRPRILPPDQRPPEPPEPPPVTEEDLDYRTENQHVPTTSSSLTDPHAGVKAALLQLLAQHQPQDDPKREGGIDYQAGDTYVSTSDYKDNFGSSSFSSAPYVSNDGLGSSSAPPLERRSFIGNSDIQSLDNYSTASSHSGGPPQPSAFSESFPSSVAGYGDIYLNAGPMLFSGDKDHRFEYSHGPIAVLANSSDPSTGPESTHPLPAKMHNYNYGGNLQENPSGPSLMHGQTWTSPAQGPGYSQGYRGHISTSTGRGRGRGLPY
T1 sequence (O75909 whole entry partner): as the sequence (O75909 whole entry partner) above

`CC(=O)N(c1ccc(-c2ccc(N3CCN(c4cc(C(C(=O)N5C[C@H](O)C[C@H]5C(=O)N[C@@H](C)c5ccc(-c6scnc6C)cc5)C(C)C)on4)CC3)nc2)cc1)[C@H]1CC[C@@H](Nc2ncc3ccccc3n2)CC1` (single isomer, unassigned) [Formula 155] gave a DC50 (CDK13 [1]) of less than 100 nM and a DC50 (CDK12 [2]) of less than 100 nM.
Molecule `CC(=O)N(c1ccc(-c2cnc(N3CCN(c4cc(C(C(=O)N5C[C@H](O)C[C@H]5C(=O)N[C@@H](C)c5ccc(-c6scnc6C)cc5)C(C)C)on4)CC3)nc2)cc1)[C@H]1CC[C@@H](Nc2ncc3ccccc3n2)CC1` (single isomer, unassigned) [Formula 156] has a DC50 (CDK13 [1]) of less than 100 nM and a DC50 (CDK12 [2]) of less than 100 nM.
`CC(=O)N(c1ccc(-c2cnn(CC3CN(CC(=O)N[C@H](C(=O)N4C[C@H](O)C[C@H]4C(=O)N[C@@H](C)c4ccc(-c5scnc5C)cc4)C(C)(C)C)C3)c2)cc1)[C@H]1CC[C@H](Nc2ncc3ccccc3n2)CC1` (stereo in doubt) [Formula 140, (2S,4R)-1-((R)-3,3-dimethyl-2-(2-(3-((4-(4-(N-((1R,4R)-4-(quinazolin-2-ylamino)cyclohexyl)acetamido)phenyl)-1H-pyrazol-1-yl)methyl)azetidin-1-yl)acetamido)butanoyl)-4-hydroxy-N—((R)-1-(4-(4-methylthiazol-5-yl)phenyl)ethyl)pyrrolidine-2-carboxamide] gave a DC50 (CDK13 [1]) of 500 to 1000 nM and a DC50 (CDK12 [2]) of 1000 to 3000 nM.
`Cc1ncsc1-c1ccc([C@H](C)NC(=O)[C@@H]2C[C@@H](O)CN2C(=O)[C@@H](NC(=O)CN2CCN(c3ccc(-c4ccc5c(c4)CCN(Cc4ccccc4)C(=O)N5[C@H]4CC[C@H](Nc5ccc(C#N)cn5)CC4)cn3)CC2)C(C)(C)C)cc1` [Formula 69] gave a DC50 (CDK12 [3]) of 500 to 1000 nM and a DC50 (CDK13 [4]) of 100 to 500 nM.
Work on `Cc1ncsc1-c1ccc([C@H](C)NC(=O)[C@@H]2C[C@@H](O)CN2C(=O)[C@@H](NC(=O)CN2CCN(c3ccc(-c4ccc5c(c4)CCCN(Cc4ccccc4)C(=O)N5[C@H]4CC[C@H](Nc5ccc(C#N)cn5)CC4)cn3)CC2)C(C)(C)C)cc1` [Formula 70] yielded a DC50 (CDK12 [3]) of less than 100 nM and a DC50 (CDK13 [4]) of less than 100 nM.
With `Cc1ncsc1-c1ccc([C@H](C)NC(=O)[C@@H]2C[C@@H](O)CN2C(=O)[C@@H](NC(=O)CN2CCN(c3ncc(-c4ccc(N(C(=O)NCc5ccccc5)[C@H]5CC[C@H](Nc6ccc(C#N)cn6)CC5)cc4)cn3)CC2)C(C)(C)C)cc1` [Formula 79] the DC50 (CDK12 [3]) was less than 100 nM and the DC50 (CDK13 [4]) was less than 100 nM.
With `Cc1ncsc1-c1ccc([C@H](C)NC(=O)[C@@H]2C[C@@H](O)CN2C(=O)[C@@H](NC(=O)CN2CCN(c3ncc(-c4ccc(N(C(=O)NCc5ccccc5)[C@H]5CC[C@H](Nc6ccc(C#N)cn6)CC5)cc4)cn3)CC2)C(C)(C)C)cc1` [Formula 80] the DC50 (CDK12 [3]) was less than 100 nM and the DC50 (CDK13 [4]) was less than 100 nM.
`Cc1ncsc1-c1ccc([C@H](C)NC(=O)[C@@H]2C[C@@H](O)CN2C(=O)[C@@H](NC(=O)CN2CCN(c3ncc(-c4ccc(N(C(=O)NCc5ccccc5)[C@H]5CC[C@H](Nc6ccc(C#N)cn6)CC5)cc4)cn3)CC2)C(C)(C)C)cc1` [Formula 82] showed a DC50 (CDK12 [3]) of less than 100 nM and a DC50 (CDK13 [4]) of less than 100 nM.
Molecule `Cc1ncsc1-c1ccc([C@H](C)NC(=O)[C@@H]2C[C@@H](O)CN2C(=O)[C@@H](NC(=O)CN2CCN(c3ncc(-c4ccc(N(C(=O)NCc5ccccc5)[C@H]5CC[C@H](Nc6ccc(C#N)cn6)CC5)cc4)cn3)CC2)C(C)(C)C)cc1` [Formula 83] has a DC50 (CDK12 [3]) of less than 100 nM and a DC50 (CDK13 [4]) of less than 100 nM.
Work on `Cc1ncsc1-c1ccc([C@H](C)NC(=O)[C@@H]2C[C@@H](O)CN2C(=O)[C@@H](NC(=O)CN2CCN(c3ncc(-c4ccc(N(C(=O)NCc5ccccc5)[C@H]5CC[C@H](Nc6ccc(C#N)cn6)CC5)cc4)cn3)CC2)C(C)(C)C)cc1` [Formula 84] yielded a DC50 (CDK12 [3]) of less than 100 nM and a DC50 (CDK13 [4]) of less than 100 nM.
Molecule `Cc1ncsc1-c1ccc([C@H](C)NC(=O)[C@@H]2C[C@@H](O)CN2C(=O)[C@@H](NC(=O)CN2CCN(c3ncc(-c4ccc(N(C(=O)NCc5ccccc5)[C@H]5CC[C@H](Nc6ccc(C#N)cn6)CC5)cc4)cn3)CC2)C(C)(C)C)cc1` [Formula 85] has a DC50 (CDK12 [3]) of less than 100 nM and a DC50 (CDK13 [4]) of less than 100 nM.
For `Cc1ncsc1-c1ccc([C@H](C)NC(=O)[C@@H]2C[C@@H](O)CN2C(=O)[C@@H](NC(=O)CN2CCN(c3ncc(-c4ccc(N(C(=O)NCc5ccccc5)[C@H]5CC[C@H](Nc6ccc(C#N)cn6)CC5)cc4)cn3)CC2)C(C)(C)C)cc1` [Formula 86], the DC50 (CDK12 [3]) was less than 100 nM and the DC50 (CDK13 [4]) was less than 100 nM.
With `CC(=O)N(c1ccc(N2CCN(C(=O)CNc3ccc4c(c3)C(=O)N(C3CCC(=O)NC3=O)C4=O)CC2)cc1)[C@H]1CC[C@H](Nc2ncc3ccccc3n2)CC1` (stereo partly drawn) [Formula 101, N-(4-(4-((2-(2,6-dioxopiperidin-3-yl)-1,3-dioxoisoindolin-5-yl)aminoacetyl)piperazin-1-yl)phenyl)-N-((1R,4R)-4-(quinazolin-2-ylamino)cyclohexyl)acetamide] the DC50 (CDK13 [1]) was 1000 to 3000 nM and the DC50 (CDK12 [2]) was 1000 to 3000 nM.
Work on `CC(=O)N(c1ccc(-c2ccc(CN3CCN(c4ccc5c(c4)C(=O)N(C4CCC(=O)NC4=O)C5=O)CC3)nc2)cc1)[C@H]1CC[C@H](Nc2ncc3ccccc3n2)CC1` (stereo partly drawn) [Formula 102, N-(4-(6-((4-(2-(2,6-dioxopiperidin-3-yl)-1,3-dioxoisoindolin-5-yl)piperazin-1-yl)methyl)pyridin-3-yl)phenyl)-N-((1R,4R)-4-(quinazolin-2-ylamino)cyclohexyl)acetamide] yielded a DC50 (CDK13 [1]) of 100 to 500 nM and a DC50 (CDK12 [2]) of 500 to 1000 nM.
Molecule `CC(=O)N(c1ccc(N2CCN(c3ccc4c(c3)C(=O)N(C3CCC(=O)NC3=O)C4=O)CC2)cc1)[C@H]1CC[C@H](Nc2ncc3ccccc3n2)CC1` (stereo partly drawn) [Formula 104, N-(4-(4-(2-(2,6-dioxopiperidin-3-yl)-1,3-dioxoisoindolin-5-yl)piperazin-1-yl)phenyl)-N-((1R,4R)-4-(quinazolin-2-ylamino)cyclohexyl)acetamide] has a DC50 (CDK13 [1]) of 3000 to 10000 nM and a DC50 (CDK12 [2]) of 3000 to 10000 nM.
`CC(=O)N(c1ccc(N2CCN(CC3CCN(c4ccc5c(c4)C(=O)N(C4CCC(=O)NC4=O)C5=O)CC3)CC2)cc1)[C@H]1CC[C@H](Nc2ncc3ccccc3n2)CC1` (stereo partly drawn) [Formula 106] was tested, and the DC50 (CDK13 [1]) was 500 to 1000 nM and the DC50 (CDK12 [2]) was 500 to 1000 nM.
Work on `CC(=O)N(c1ccc(-c2cnc(N3CCN(c4ccc5c(c4)C(=O)N(C4CCC(=O)NC4=O)C5=O)CC3)nc2)cc1)[C@H]1CC[C@H](Nc2ncc3ccccc3n2)CC1` (stereo partly drawn) [Formula 107] yielded a DC50 (CDK13 [1]) of less than 100 nM and a DC50 (CDK12 [2]) of less than 100 nM.
`CC(=O)N(c1ccc(-c2cnc(OC3CN(c4ccc5c(c4)C(=O)N(C4CCC(=O)NC4=O)C5=O)C3)nc2)cc1)[C@H]1CC[C@H](Nc2ncc3ccccc3n2)CC1` (stereo partly drawn) [Formula 108, N-(4-(2-((1-(2-(2,6-dioxopiperidin-3-yl)-1,3-dioxoisoindolin-5-yl)azetidin-3-yl)oxy)pyrimidin-5-yl)phenyl)-N-((1R,4R)-4-(quinazolin-2-ylamino)cyclohexyl)acetamide] showed a DC50 (CDK13 [1]) of 100 to 500 nM and a DC50 (CDK12 [2]) of 100 to 500 nM.
`CC(=O)N(c1ccc(-c2cnc(O[C@@H]3CCN(c4ccc5c(c4)C(=O)N(C4CCC(=O)NC4=O)C5=O)C3)nc2)cc1)[C@H]1CC[C@H](Nc2ncc3ccccc3n2)CC1` (stereo partly drawn) [Formula 109, N-(4-(2-(((3R)-1-(2-(2,6-dioxopiperidin-3-yl)-1,3-dioxoisoindolin-5-yl)pyrrolidin-3-yl)oxy)pyrimidin-5-yl)phenyl)-N-((1R,4R)-4-(quinazolin-2-ylamino)cyclohexyl)acetamide] showed a DC50 (CDK13 [1]) of 100 to 500 nM and a DC50 (CDK12 [2]) of 100 to 500 nM.
`CC(=O)N(c1ccc(-c2cnc(O[C@H]3CCN(c4ccc5c(c4)C(=O)N(C4CCC(=O)NC4=O)C5=O)C3)nc2)cc1)[C@H]1CC[C@H](Nc2ncc3ccccc3n2)CC1` (stereo partly drawn) [Formula 110, N-(4-(2-(((3S)-1-(2-(2,6-dioxopiperidin-3-yl)-1,3-dioxoisoindolin-5-yl)pyrrolidin-3-yl)oxy)pyrimidin-5-yl)phenyl)-N-((1R,4R)-4-(quinazolin-2-ylamino)cyclohexyl)acetamide] showed a DC50 (CDK13 [1]) of 500 to 1000 nM and a DC50 (CDK12 [2]) of 1000 to 3000 nM.
`CC(=O)N(c1ccc(-c2ccn(CC3CCN(c4ccc5c(c4)C(=O)N(C4CCC(=O)NC4=O)C5=O)CC3)c(=O)c2)cc1)[C@H]1CC[C@H](Nc2ncc3ccccc3n2)CC1` (stereo partly drawn) [Formula 111, N-(4-(1-((1-(2-(2,6-dioxopiperidin-3-yl)-1,3-dioxoisoindolin-5-yl)piperidin-4-yl)methyl)-2-oxo-1,2-dihydropyridin-4-yl)phenyl)-N-((1R,4R)-4-(quinazolin-2-ylamino)cyclohexyl)acetamide] was tested, and the DC50 (CDK13 [1]) was 1000 to 3000 nM and the DC50 (CDK12 [2]) was 1000 to 3000 nM.
Molecule `CC(=O)N(c1ccc(-c2ccn(CC3CN(c4ccc5c(c4)C(=O)N(C4CCC(=O)NC4=O)C5=O)C3)c(=O)c2)cc1)[C@H]1CC[C@H](Nc2ncc3ccccc3n2)CC1` (stereo partly drawn) [Formula 112, N-(4-(1-((1-(2-(2,6-dioxopiperidin-3-yl)-1,3-dioxoisoindolin-5-yl)azetidin-3-yl)methyl)-2-oxo-1,2-dihydropyridin-4-yl)phenyl)-N-((1R,4R)-4-(quinazolin-2-ylamino)cyclohexyl)acetamide] has a DC50 (CDK13 [1]) of 100 to 500 nM and a DC50 (CDK12 [2]) of 100 to 500 nM.
`CC(=O)N(c1ccc(N2CCC3(CC2)CCN(c2ccc4c(c2)C(=O)N(C2CCC(=O)NC2=O)C4=O)C3)cc1)[C@H]1CC[C@H](Nc2ncc3ccccc3n2)CC1` (stereo partly drawn) [Formula 119, N-(4-(2-(2-(2,6-dioxopiperidin-3-yl)-1,3-dioxoisoindolin-5-yl)-2,8-diazaspiro[4.5]decan-8-yl)phenyl)-N-((1R,4R)-4-(quinazolin-2-ylamino)cyclohexyl)acetamide] showed a DC50 (CDK12 [2]) of 1000 to 3000 nM.
